Source: patent US7897569B2, “Use of HMGB fragments as anti-inflammatory agents” (The Feinstein Institute for Medical Research, priority 2001, dated 2011)
Ends that are not written are not given here.

System: RAW 264.7 cells
Assay: TNF release from RAW 264.7 cells (L929 cytotoxicity bioassay)
Format: cell-based, murine
Conditions: for TNF release by synthetic peptide fragment of B box: no polymyxin B
Procedure: Murine macrophage-like RAW 264.7 cells (American Type Culture Collection, Rockville, Md.) were cultured in RPMI 1640 medium (Life Technologies, Grand Island N.Y.) supplemented with 10% fetal bovine serum (Gemini, Catabasas, Calif.), penicillin and streptomycin (Life Technologies) and were used at 90% confluence in serum-free Opti-MEM I medium (Life Technologies, Grand Island, N.Y.). […] Polymyxin B was not used in experiments of synthetic peptide studies.
TNF release was measured by a standard murine fibroblast L929 (ATCC, American Type Culture Collection, Rockville, Md.) cytotoxicity bioassay (Bianchi et al., Journal of Experimental Medicine 183:927-936, 1996) with the minimum detectable concentration of 30 pg/ml. Recombinant mouse TNF was obtained from R&D system Inc., (Minneapolis, Minn.). Murine fibroblast L929 cells (ATCC) were cultured in DMEM (Life Technologies, Grand Island, N.Y.) supplemented with 10% fetal bovine serum (Gemini, Catabasas, Calif.), penicillin (50 units/ml) and streptomycin (50 μg/ml) (Life Technologies) in a humidified incubator with 5% CO2.
The effect of the mutants on TNF release from Murine macrophage-like RAW 264.7 cells (ATCC) was carried out as follows. RAW 264.7 cells were cultured in RPMI 1640 medium (Life Technologies, Grand Island N.Y.) supplemented with 10% fetal bovine serum (Gemini, Catabasas, Calif.), penicillin and streptomycin (Life Technologies). Polymyxin (Sigma, St. Louis, Mo.) was added at 100 units/ml to suppress the activity of any contaminating LPS. Cells were incubated with 1 μg/ml of full length (wild-type) HMGB1 and each HMGB1 mutant protein in Opti-MEM I medium for 8 hours, and conditioned supernatants (containing TNF which had been released from the cells) were collected and TNF released from the cells was measured by a standard murine fibroblast L929 (ATCC) cytotoxicity bioassay (Bianchi et al., supra) with the minimum detectable concentration of 30 pg/ml. Recombinant mouse TNF was obtained from R & D Systems Inc., (Minneapolis, Minn.) and used as control in these experiments. Data in FIG. 1 are all presented as mean+SEM unless otherwise indicated. (N=6-10).
To further examine the effect of HMGB1 B box on cytokine production, varying amounts of HMGB1 B box were evaluated for the effects on TNF, IL-1 B, and IL-6 production in murine macrophage-like RAW 264.7 cells. Conditioned media were harvested and measured for TNF, IL-1β and IL-6 levels. TNF levels were measured as described herein, and IL-1β and IL-6 levels were measured using the mouse IL-1β and IL-6 enzyme-linked immunosorbent assay (ELISA) kits (R&D System Inc., Minneapolis, Minn.) and N>5 for all experiments.
The kinetics of B box-induced TNF release was also examined. TNF release and TNF mRNA expression was measured in RAW 264.7 cells induced by B box polypeptide or GST tag polypeptide only used as a control (vector) (10 μg/ml) for 0 to 48 hours. Supernatants were analyzed for TNF protein levels by an L929 cytotoxicity assay (N=3-5) as described herein. For mRNA measurement, cells were plated in 100 mm plate and treated in Opti-MEM I medium containing B box polypeptide or the vector alone for 0, 4, 8, or 24 hours, as indicated in FIG. 2D. The vector only sample was assayed at the 4 hour time point. Cells were scraped off the plate and total RNA was isolated by RNAzol B method in accordance with the manufacturer's instructions (Tel-Test “B”, Inc., Friendswood, Tex.). TNF (287 bp) was measured by RNase protection assay (Ambion, Austin, Tex.). Equal loading and the integrity of RNA was verified by ethidium bromide staining of the RNA sample on agarose-formaldehyde gel. […] TNF mRNA expression was maximal at 4 hours and decreased at 8 and 24 hours. […] A similar study was carried out measuring TNF protein released from RAW 264.7 cells 0, 4, 8, 24, 32 or 48 hours after administration of B box or vector only (GST tag), using the L929 cytotoxicity assay described herein. […] Data are representative of three separate experiments. […]

Molecule	TNF release by synthetic peptide fragment of B box (peptide 10 μg/ml, 10 hours)	TNF stimulating activity relative to full length B box and HMGB1 (peptide 10 μg/ml, 10 hours)	TNF release (1 μg/ml protein, 8 hours, RAW 264.7 cells)
30-49: Synthetic peptide fragment, amino acids 30-49 of the HMGB1 B box (SEQ ID NO:20) (PGLSIGDVAKKLGEMWNNTA)	did not induce TNF release	–	–
16-25: Synthetic peptide fragment, amino acids 16-25 of the HMGB1 B box (SEQ ID NO:20) (LFCSEYRPKI)	did not induce TNF release	–	–
fkdpnapkrlpsafflfcse (FKDPNAPKRLPSAFFLFCSE; not fully specified; printed as fkdpnapkrlpsafflfcse) [1-20-mer]	TNF-stimulating activity was retained	less potent than either the full length synthetic B box (1-74-mer), or full length HMGB1	–
45-64: Synthetic peptide fragment, amino acids 45-64 of the HMGB1 B box (SEQ ID NO:20) (WNNTAADDKQPYEKKAAKLK)	did not induce TNF release	–	–
60-74: Synthetic peptide fragment, amino acids 60-74 of the HMGB1 B box (SEQ ID NO:20) (AAKLKEKYEKDIAAY)	did not induce TNF release	–	–
carboxyl-truncated HMGB1: Human HMGB1 mutant in which the carboxy terminus was deleted, SEQ ID NO:19 (protein) MGKGDPKKPTGKMSSYAFFVQTCREEHKKKHPDASVNFSEFSKKCSERWKTMSAKEKGKFEDMAKADKARYEREMKTYIPPKGETKKKFKDPNAPKRLPSAFFLFCSEYRPKIKGEHPGLSIGDVAKKLGEMWNNTAADDKQPYEKKAAKLKEKYEKDIAAYRAKGKPDAAKKGVVKAEKSK	–	–	significantly stimulated TNF release
